The text below walks through data of US10342806B2, “Hormone treatment for age-related hearing loss-presbycusis” (priority 2014, dated 2019).

Data set [1] in a line: Tail-cuff plethysmography of blood pressure. The class given is in vivo, mouse. The following applies: 0.0016 mg/day pellet, measured at 2 and 4 months. The procedure: FIG. 27(A) is graph showing the tail-cuff plethysmography of blood pressure for ALD treatments of 60 days and 120 days, compared to middle-age control mice. Diastolic blood pressures were measured for middle-aged (20-21 mon) CBA/CaJ mice and middle-age ALD treated (0.0016 mg/day continuous release through 120 days, one pellet for 60 days and subsequently a second pellet for 60 days) mice, each group, n=5. Pressures were taken at 60 and 120 days and compared to the middle-age control animals. Mean±SD for each group.
FIG. 27(B) is a graph showing the tail-cuff plethysmography of blood pressure for ALD treatments of 60 days and 120 days, compared to middle-age control mice. Systolic blood pressures were measured for middle-aged (20-21 mon) CBA/CaJ mice and middle-age ALD treated (0.0016 mg/day continuous release through 120 days, one pellet for 60 days and subsequently a second pellet for 60 days) mice, each group, n=5. Pressures were taken at 60 and 120 days and compared to the middle-age control animals. Mean±SD for each group.
During treatment, blood pressures were measured for the mice at 2 and 4 months after start of treatment.

The subject of the next data set is iNOS and nNOS. In words: iNOS and nNOS expression in modiolar tissue samples. The class given is in vivo, mouse. The following applies: young adult, control middle-aged, ALD-treated middle-aged mice. The procedure:
During treatment, blood pressures were measured for the mice at 2 and 4 months after start of treatment. […] Death was confirmed by terminal phlebotomy/exsanguinations and perfusion. Cell lysates were collected and subject to western blot and RT-PCT analysis. The cells were placed in RIPA buffer and sonicated. Protein concentration was measured using the Bradford method. Proteins were separated by SDS-PAGE. The antibodies used for western blot were: anti-iNOS, nNOS and caspase-3 antibodies (Cell Signaling, Cambridge, Mass.). Total cellular RNA was extracted using the RNeasy Plus Mini Kit (74134). For RT-PCR, 10 ng of total cellular RNA was reverse transcribed and complementary DNA was amplified, using the Enhanced Avian HS RT-PCR-100 Kit (Sigma, HSRT20). Primers used for qRT-PCR were as follows: […]

The subject of the next data set is CBA mice. The following applies: ALD-treated aging CBA mice (Halonen et al. 2014); cited from earlier work.
The next data set concerns NKCC1. In words: 86Rb uptake in HT-29 cells. Format: cell-based, human. The following applies: HT-29 cells, 2, 4, 8, and 12 h after ALD. How it is done:
Cell culture and buffers. […] Arch Oral Biol 52: 411-416, 2007). […] J Cell Sci 112: […], 1999, Epple, et al., Early aldosterone effect in distal colon by transcriptional regulation of ENaC subunits. Am J Physiol Gastrointest Liver Physiol 278: […] Am J Physiol Cell Physiol 305: […]-[…], 2013). HT-29 cells were grown in DMEM media (Invitrogen, Carlsbad Calif.) with 10% FBS and antibiotics. Cells were grown in a humidified 95%/5% CO2 incubator at 37° C. Experiments were performed at 70-80% confluence. ^86Rb uptake. Similar to previous studies of NKCC1 activity (Gagnon & Delpire, Molecular determinants of hyperosmotically activated NKCC1-mediated K_/K_exchange. J Physiol 588: 3385-3396, 2010), cells were plated on six-well dishes and incubated at 37° C./5% CO2 until confluent. For the uptake, cells were first washed twice with 1 ml of isosmotic saline (140 mM NaCl, 5 mM KCl, 2 mM CaCl2, 0.8 mM MgSO4, 5 mM glucose, 5 mM HEPES buffered to pH 7.4, and 300.5 mosM). […] After a 20-min uptake, the radioactive solution was aspirated, and the cells were washed three times with 1 ml of ice-cold solution, lysed for 1 h with 500 μl of 0.25 N NaOH, and neutralized with 250 μl of glacial acetic acid. ^86Rb tracer activity was measured by using 150 μl of lysate for γ-scintillation counting. […]

The next data set relates to NKCC1 ubiquitination. Briefly: Immunoprecipitation (autoubiquitination assay) of NKCC1 in HT-29 cells. The class given is cell-based, human. The following applies: MG132 20 μM 2 h, then ALD 1 μM and/or GSK 650394 50 μM for 24 h. The procedure:
Immunoprecipitation (autoubiquitination assay) and western blot analysis. An autoubiquitination assay was followed (Garg, et al., Effect of the Na—K-2Cl cotransporter NKCC1 on systemic blood pressure and smooth muscle tone. Am J Physiol Heart Circ Physiol 292: H2100-H2105, 2007). Cell extracts were prepared in a modified radioimmunoprecipitation assay 1 (RIPA) buffer, containing the following (in mM): 50 Tris·HCl at pH 7.4, 150 NaCl, 1 EDTA, and 1 dithiothreitol with 1% Nonidet P-40, 0.1% SDS; in a 1:200-diluted protease inhibitor cocktail (Sigma), containing the following (in mM): 1 PMSF, 10 NEM, and 0.1 iodoacetamide Immunoprecipitations were accomplished using a rabbit polyclonal anti-NKCC1 antibody (Cell Signaling). Antibody was bound to lysate with endogenous NKCC1, and then beads were added. Bound proteins were eluted in 1× SDS sample buffer, fractionated on an SDS-polyacrylamide gel, transferred onto a […] membrane (GE Healthcare, Piscataway, N.J.), and immunoblotted with anti-ubiquitin antibody visualized using enhanced chemiluminescence detection reagents (Pears, Shelton Conn.) according to the manufacturer's instructions.
Immunoblotting with anti-ubiquitin antibody was performed as described above.
ALD decreases the endogenous ubiquitination of NKCC1 and inhibition of SGK1 activation blocks this downregulation. […]

Consider `C[C@]12CCC(=O)C=C1CC[C@@H]1[C@@H]2[C@@H](O)C[C@]2(C=O)[C@@H](C(=O)CO)CC[C@@H]12` [ALD, aldosterone], for which the “diastolic or systolic blood pressure” value in data set [1] is “neither aging nor the hormone treatment appeared to affect either diastolic or systolic blood pressure”. For the same compound, in the data set on iNOS and nNOS, the “iNOS and nNOS gene expression” value is listed as “no alteration in NOS expression”; the iNOS protein levels result is reported as “approximately the same”. Besides, the “auditory temporal processing (prepulse inhibition)” value in the data set on CBA mice is “provocative increases in auditory temporal processing”. The “NKCC1 protein activity (86Rb uptake)” value in the data set with NKCC1 is listed as “upregulated NKCC1 protein activity”. Further, the “endogenous ubiquitinated NKCC1” value with NKCC1 ubiquitination was “significantly reduced”.
